Source: patent publication US9371295B2, “Compounds for use in the treatment of disorders that are ameliorated by inhibition of HDAC” (IRBM—Science Park S.p.A., priority 2012, dated 2016)

Columns and labels:
[1] = test system: human γ-globin promoter (EGFP reporter) in K562 cells; experiment: HbF activation assay on K562 (EGFP/RFP reporter model system for screening of inducers of fetal hemoglobin); format: cell-based; conditions: 60 hours
Outline: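 K562 cells stably carrying EGFP under the human γ-globin promoter and far-red FP under the β-globin promoter, with the LCR, were seeded at 1000 cells/well. Cells were exposed to compounds (0.25% DMSO final) for 60 h at 37 °C. Fluorescence was read by plate cytometry, normalized to Hoechst nuclei count, which also indicated proliferation or death.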

[2] = target: T1, HDAC1 (Homo sapiens, UniProt Q13547); experiment: HDAC1 assay (Fluor-de-Lys fluorescent deacetylase assay); format: biochemical; conditions: read-out: hHDAC IC50
T1 construct: made in house
T1 sequence (Q13547 whole entry): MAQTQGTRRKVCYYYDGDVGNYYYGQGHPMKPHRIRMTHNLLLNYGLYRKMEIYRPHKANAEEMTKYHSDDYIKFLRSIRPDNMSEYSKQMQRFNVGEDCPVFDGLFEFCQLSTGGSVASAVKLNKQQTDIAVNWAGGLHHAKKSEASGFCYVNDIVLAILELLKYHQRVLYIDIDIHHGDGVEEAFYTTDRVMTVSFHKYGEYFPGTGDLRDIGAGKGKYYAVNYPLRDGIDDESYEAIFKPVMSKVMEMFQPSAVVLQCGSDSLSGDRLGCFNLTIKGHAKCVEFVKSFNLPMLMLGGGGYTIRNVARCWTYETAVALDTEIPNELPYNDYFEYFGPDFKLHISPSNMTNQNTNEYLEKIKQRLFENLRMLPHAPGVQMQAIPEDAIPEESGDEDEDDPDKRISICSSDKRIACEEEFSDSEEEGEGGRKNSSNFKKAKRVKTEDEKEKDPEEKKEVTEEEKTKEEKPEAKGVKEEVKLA
Outline: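 Serially diluted compounds were pre-incubated with purified FLAG-tagged HDAC1 (1-2 nM final; from transfected HeLa cells) or HeLa nuclear extract, then given the Fluor-de-Lys acetyl-lysine substrate/developer; deacetylation read as fluorescence. Reactions were stopped with TSA (3 uM final).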

[3] = test system: HDAC in Hela cells; experiment: HDAC Hela Cell Based assay
[4] = Rat PK studies, oral dose; format: in vivo, Sprague-Dawley rats; conditions: male, Sprague-Dawley, plasma, po 10 mg/kg
Procedure: Rats Male Sprague-Dawley rats (250-350 g) were used for the absorption disposition studies. In each rat an indwelling cannula was implanted in the right jugular vein for blood sampling. The surgery was performed under light anaesthesia (Ketamine-Xilazine (85 mg/kg and 2.5 mg/kg respectively i.m.) one day prior the experiment). During the kinetic study, all animals were housed individually in plastic metabolism cages, and were unrestrained throughout the experiment. Compounds (6 mg/mL) were dissolved in 20% DMSO/60% PEG400/20% water for intravenous administration, and dissolved or suspended in 1% methylcellulose for oral administration (2 mg/ml). After an overnight fast, the rats received an i.v. (via caudal vein) or an oral dose of the compound. Blood samples were collected at different times point after dosing. Plasma was separated immediately after blood sampling by centrifugation, and the plasma samples were kept frozen (−20° C.) until assayed by LC/MS/MS.
Analytical procedures: Plasma samples were extracted using Liquid Handling Robot MultiProbe Packard by protein precipitation with acetonitrile. Then the samples were centrifuged (3000 rpm×15 min at 4° C.) and the supernatant transferred and dried under nitrogen. The samples were reconstituted in water/acetonitrile 90/10 and then injected directly into an HPLC column. Sample analyses were performed using a an API 3000 or/and API 2000 or/and API 4000 Mass Spectrometer interfaced via the Turbo Ion Spray (ESI)/APCI to an LC system consisting of an HTS PAL CTC autosampler and an Agilen HP 1100 Binary Pump. The results are calculated using Analyst Software linear regression with 1/x*x weighting. The Assay Precision was calculated for the Quality Controls by Watson Lims database.
Pharmacokinetic Analysis: The plasma clearance (CLp) of the compounds were calculated (using Watson PK program) as the dose divided by the area under the plasma concentration-time curve from time zero to infinity (AUC0-∞). The apparent half-life was estimated from the slope of the terminal phase of the log plasma concentration-time data. The volume of distribution (Vdss) was determined using the following noncompartmental method: Vdss=(Dose IV×AUMC)/(AUC0-∞)2
where AUMC is the total area under the first moment of the drug concentration time curve from time zero to infinity. Bioavailability was estimated as the AUC0-∞ ratio following oral and intravenous administration, normalized for differences in dose.

[5] = Intrinsic clearance in pooled rat liver microsomes; format: in vitro ADME; conditions: pH 7.4
Procedure: Assays were performed in presence of 0.5 mg/ml of microsomal protein, with a NADPH-generating system (1 mM NADP, 2.5 mM glucose 6-phosphate and 2 U/ml glucose 6-phosphate dehydrogenase) in 100 mM potassium phosphate buffer containing 3.3 mM MgCl2 (pH 7.4). Tested compounds were stored in 10 mM DMSO solution and incubated at 1 μM final concentration (final DMSO concentration in incubation less than 0.1%). Microsomes and substrates were preincubated at 37° C. for 5 min and then the enzymatic reactions were initiated by the addition of cofactors and incubated at 37° C. for up to 90 min. Incubations were terminated by the addition of an equivalent volume of cold acetonitrile containing I.S. Control incubations, where the substrate was incubated in the same buffer system containing pRLM without the NADPH-generating system, were also run.

[6] = Intrinsic clearance in pooled human liver microsomes; format: in vitro ADME; conditions: pH 7.4
[7] = Intrinsic clearance in pooled mouse liver microsomes; format: in vitro ADME; conditions: pH 7.4
[8] = Mouse in vivo pharmacokinetics, oral dose; conditions: plasma
Procedure: Compounds of the invention were evaluated in in vitro and in vivo pharmacokinetic studies.

[9] = test system: human γ-globin gene; conditions: transgenic mice; Cao, H Exp. Hematol. 2005; cited from earlier work

CCC(=O)CCCCC[C@H](NC(=O)C12CCN(CC1)CC2)c1ncc(-c2cc3ccccc3nc2OC)o1 [Compound 41, (S)-N-(1-(5-(2-methoxyquinolin-3-yl)oxazol-2-yl)-7-oxononyl)quinuclidine-4-carboxamide]
EC50 [1]: > 1000 nM
IC50 [2]: < 100 nM
IC50 [3]: < 100 nM
AUC [4]: 10.1 µM·h
Cmax [4]: 470 nM

CCC(=O)CCCCC[C@@H](NC(=O)C1CN(C)C1)c1ncc(-c2cc3ccccc3nc2OC)o1 [Compound 42, (R)-N-(1-(5-(2-methoxyquinolin-3-yl)oxazol-2-yl)-7-oxononyl)-1-methylazetidine-3-carboxamide]
EC50 [1]: > 1000 nM
IC50 [2]: < 100 nM
IC50 [3]: 100 to 1000 nM
microsomal CLint at 1 μM [5]: 21 µL/min/mg
microsomal CLint at 1 μM [6]: 3 µL/min/mg
microsomal CLint at 1 μM [7]: 15 µL/min/mg
AUC ([8]; po 5 mg/kg): 5.93 µM·h
Cmax ([8]; po 5 mg/kg): 670 nM

CCC(=O)CCCCC[C@H](NC(=O)C1CN(C)C1)c1ncc(-c2cc3ccccc3[nH]c2=O)o1 [Compound 44, (S)-1-methyl-N-(7-oxo-1-(5-(2-oxo-1,2-dihydroquinolin-3-yl)oxazol-2-yl)nonyl)azetidine-3-carboxamide]
EC50 [1]: 100 to 1000 nM
IC50 [2]: < 100 nM
IC50 [3]: < 100 nM
microsomal CLint at 1 μM [5]: 17 µL/min/mg
microsomal CLint at 1 μM [6]: 11 µL/min/mg
microsomal CLint at 1 μM [7]: 11 µL/min/mg

CCC(=O)CCCCC[C@H](NC(=O)C1CN(C)C1)c1nnc(-c2cc3ccccc3nc2OC)o1 [Compound 52, (S)-N-(1-(5-(2-methoxyquinolin-3-yl)-1,3,4-oxadiazol-2-yl)-7-oxononyl)-1-methylazetidine-3-carboxamide]
EC50 [1]: > 1000 nM
IC50 [2]: < 100 nM
IC50 [3]: 100 to 1000 nM
microsomal CLint at 1 μM [5]: 30 µL/min/mg
microsomal CLint at 1 μM [6]: 60 µL/min/mg
microsomal CLint at 1 μM [7]: 19 µL/min/mg
AUC ([8]; po 10 mg/kg): 1.75 µM·h
Cmax ([8]; po 10 mg/kg): 630 nM
AUC [4]: 5.91 µM·h
Cmax [4]: 580 nM

CCCC(=O)NO [butyryl hydroxamate]
increase of human γ/murine α-globin mRNA ratios [9]: 33.9%

CCC(=O)NO [propionyl hydroxamate]
increase of human γ/murine α-globin mRNA ratios [9]: 71%
